System: 994946-033-R-J1-PDC complex spheroid viability
Test: Anticancer human tumor 994946-033-R-J1-PDC patient-derived melanoma cell line growth inhibition [POLQ]
Settings: for IC50: curve of first compound; for viability, T/C: stronger effect = lower value
Outline: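 Three-cell-type spheroids modelling solid tumor plus stroma served as the readout system; POL inhibitors were tested individually and in combination, concentration ranges set by clinical Cmax where known.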

[1] = second compound 0.0316 µM, first compound 0.0316 µM
[2] = second compound 0.0316 µM, first compound 0.1 µM
[3] = second compound 0.0316 µM, first compound 0.316 µM
[4] = second compound 0.0316 µM, first compound 1 µM
[5] = second compound 0.1 µM, first compound 0.0316 µM
[6] = second compound 0.1 µM, first compound 0.1 µM
[7] = second compound 0.1 µM, first compound 0.316 µM
[8] = second compound 0.1 µM, first compound 1 µM
[9] = second compound 0.316 µM, first compound 0.0316 µM
[10] = second compound 0.316 µM, first compound 0.1 µM
[11] = second compound 0.316 µM, first compound 0.316 µM
[12] = second compound 0.316 µM, first compound 1 µM
[13] = second compound 1 µM, first compound 0.0316 µM
[14] = second compound 1 µM, first compound 0.1 µM
[15] = second compound 1 µM, first compound 0.316 µM
[16] = second compound 1 µM, first compound 1 µM
[17] = second compound 3.16 µM, first compound 0.0316 µM
[18] = second compound 3.16 µM, first compound 0.1 µM
[19] = second compound 3.16 µM, first compound 0.316 µM
[20] = second compound 3.16 µM, first compound 1 µM
[21] = second compound 10 µM, first compound 0.0316 µM
[22] = second compound 10 µM, first compound 0.1 µM
[23] = second compound 10 µM, first compound 0.316 µM
[24] = second compound 10 µM, first compound 1 µM
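Note: spheroids exposed to drugs for 7 days.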
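Throughout, for viability, T/C: 100% = DMSO vehicle treated spheroids.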

With `CNCc1ccc(-c2[nH]c3cc(F)cc4c3c2CCNC4=O)cc1` + COC1C(OC(N)=O)C(O)C(Oc2ccc3c(O)c(NC(=O)c4ccc(O)c(CC=C(C)C)c4)c(=O)oc3c2C)OC1(C)C the IC50 (second compound 0.0316 µM) was over 10000 nM, the IC50 (second compound 0.1 µM) was over 10000 nM and the IC50 (second compound 0.316 µM) was over 10000 nM. The IC50 (second compound 1 µM) was over 10000 nM, the IC50 (second compound 3.16 µM) was over 10000 nM and the IC50 (second compound 10 µM) was over 10000 nM. The viability, T/C [1] was 114%, the viability, T/C [2] was 93.7% and the viability, T/C [3] was 96%. The viability, T/C [4] was 96.3%, the viability, T/C (second compound 0.0316 µM, first compound 3.16 µM) was 101% and the viability, T/C (second compound 0.0316 µM, first compound 10 µM) was 70.9%. For the same compound, the viability, T/C [5] was 107%, the viability, T/C [6] was 119% and the viability, T/C [7] was 83%. It also gave a viability, T/C [8] of 114%, a viability, T/C (second compound 0.1 µM, first compound 3.16 µM) of 94.4% and a viability, T/C (second compound 0.1 µM, first compound 10 µM) of 93.3%. For the same compound, the viability, T/C [9] was 117%, the viability, T/C [10] was 126% and the viability, T/C [11] was 105%. For the same compound, the viability, T/C [12] was 117%, the viability, T/C (second compound 0.316 µM, first compound 3.16 µM) was 107% and the viability, T/C (second compound 0.316 µM, first compound 10 µM) was 61.1%. For the same compound, the viability, T/C [13] was 107%, the viability, T/C [14] was 91.4% and the viability, T/C [15] was 88.4%. The viability, T/C [16] was 110%, the viability, T/C (second compound 1 µM, first compound 3.16 µM) was 109% and the viability, T/C (second compound 1 µM, first compound 10 µM) was 61.6%. The viability, T/C [17] was 92.9%, the viability, T/C [18] was 95.2% and the viability, T/C [19] was 106%. The viability, T/C [20] was 112%, the viability, T/C (second compound 3.16 µM, first compound 3.16 µM) was 99.2% and the viability, T/C (second compound 3.16 µM, first compound 10 µM) was 72.8%. For the same compound, the viability, T/C [21] was 117%, the viability, T/C [22] was 94.6% and the viability, T/C [23] was 80.3%. It also gave a viability, T/C [24] of 85.1%, a viability, T/C (second compound 10 µM, first compound 3.16 µM) of 94.5% and a viability, T/C (second compound 10 µM, first compound 10 µM) of 64.8%.
Compound `COc1cccc(OCCCN)c1-c1cc(Nc2cnc(C#N)cn2)n[nH]1` + COC1C(OC(N)=O)C(O)C(Oc2ccc3c(O)c(NC(=O)c4ccc(O)c(CC=C(C)C)c4)c(=O)oc3c2C)OC1(C)C has an IC50 (second compound 0.0316 µM) of 18.8 nM, an IC50 (second compound 0.1 µM) of 14.3 nM and an IC50 (second compound 0.316 µM) of 12.1 nM. It also gave an IC50 (second compound 1 µM) of 5.63 nM, an IC50 (second compound 3.16 µM) of 17.2 nM and an IC50 (second compound 10 µM) of 4.49 nM. The viability, T/C (second compound 0.0316 µM, first compound 0.00316 µM) was 73.9%, the viability, T/C (second compound 0.0316 µM, first compound 0.01 µM) was 69.9% and the viability, T/C [1] was 32.6%. For the same compound, the viability, T/C [2] was 24.9%, the viability, T/C [3] was 13.1% and the viability, T/C [4] was 9.24%. The viability, T/C (second compound 0.1 µM, first compound 0.00316 µM) was 84.2%, the viability, T/C (second compound 0.1 µM, first compound 0.01 µM) was 60.2% and the viability, T/C [5] was 27.5%. For the same compound, the viability, T/C [6] was 14.4%, the viability, T/C [7] was 22% and the viability, T/C [8] was 11.6%. It also gave a viability, T/C (second compound 0.316 µM, first compound 0.00316 µM) of 84.3%, a viability, T/C (second compound 0.316 µM, first compound 0.01 µM) of 52.7% and a viability, T/C [9] of 34.9%. For the same compound, the viability, T/C [10] was 11%, the viability, T/C [11] was 26.5% and the viability, T/C [12] was 18.1%. It also gave a viability, T/C (second compound 1 µM, first compound 0.00316 µM) of 57.6%, a viability, T/C (second compound 1 µM, first compound 0.01 µM) of 42.3% and a viability, T/C [13] of 25.7%. For the same compound, the viability, T/C [14] was 17.3%, the viability, T/C [15] was 30.8% and the viability, T/C [16] was 13.8%. For the same compound, the viability, T/C (second compound 3.16 µM, first compound 0.00316 µM) was 85.8%, the viability, T/C (second compound 3.16 µM, first compound 0.01 µM) was 54.5% and the viability, T/C [17] was 38.7%. It also gave a viability, T/C [18] of 32.7%, a viability, T/C [19] of 19.7% and a viability, T/C [20] of 9.09%. For the same compound, the viability, T/C (second compound 10 µM, first compound 0.00316 µM) was 56.9%, the viability, T/C (second compound 10 µM, first compound 0.01 µM) was 34.2% and the viability, T/C [21] was 18.9%. For the same compound, the viability, T/C [22] was 21.2%, the viability, T/C [23] was 20.2% and the viability, T/C [24] was 17.5%.

Source: PubChem BioAssay AID1963827 (Molecular Pharmacology Branch, DTP, NCI, 2024)
